For orientation: IC50 means the concentration that gives 50% inhibition.

This passage reports IC50 results from patent publication US8163724B2, “Glucocorticosteroids, processes for their preparation, pharmaceutical compositions containing them and their use in therapy” (AstraZeneca AB, priority 2007, dated 2012).

This assay has as its target T1, recombinant human GR (Homo sapiens, UniProt P04150).
T1 construct: purchased Panvera/Invitrogen P2812 (kit P2893)
T1 sequence (P04150 1-777): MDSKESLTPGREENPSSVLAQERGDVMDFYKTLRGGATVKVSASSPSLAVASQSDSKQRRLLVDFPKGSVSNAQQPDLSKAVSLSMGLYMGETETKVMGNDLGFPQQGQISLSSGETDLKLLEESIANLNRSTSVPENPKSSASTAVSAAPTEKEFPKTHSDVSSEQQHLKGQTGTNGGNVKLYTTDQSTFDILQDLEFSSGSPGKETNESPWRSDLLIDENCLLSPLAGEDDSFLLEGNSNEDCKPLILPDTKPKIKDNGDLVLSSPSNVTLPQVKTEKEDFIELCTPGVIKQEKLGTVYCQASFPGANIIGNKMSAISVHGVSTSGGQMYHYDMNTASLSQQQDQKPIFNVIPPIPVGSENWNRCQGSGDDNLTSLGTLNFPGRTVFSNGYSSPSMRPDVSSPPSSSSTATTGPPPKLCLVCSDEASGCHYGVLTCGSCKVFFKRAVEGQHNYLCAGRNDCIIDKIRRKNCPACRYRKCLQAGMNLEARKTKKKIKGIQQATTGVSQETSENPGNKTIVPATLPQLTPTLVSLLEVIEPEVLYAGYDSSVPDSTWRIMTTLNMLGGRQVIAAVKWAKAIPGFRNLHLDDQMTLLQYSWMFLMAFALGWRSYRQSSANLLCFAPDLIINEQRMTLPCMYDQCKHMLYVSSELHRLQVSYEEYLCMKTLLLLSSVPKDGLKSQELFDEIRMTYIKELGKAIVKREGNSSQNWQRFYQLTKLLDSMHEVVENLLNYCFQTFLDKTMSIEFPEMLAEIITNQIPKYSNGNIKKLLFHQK
Kind of assay: Human Glucocorticoid Receptor (GR) Assay (fluorescence polarization, Panvera/Invitrogen kit). The assay is classed as binding. As to conditions: fluorescence polarization; GS Red tracer; 2 hours at room temperature; 100% control 10 μM Dexamethasone; read-out: Inhibition of GR binding, IC50. In outline:
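Fluorescence polarization competition with recombinant GR and GS Red fluorescent ligand plus stabilizing peptide and DTT in potassium phosphate/sodium molybdate/EDTA buffer with DMSO. Incubated 2 hours at room temperature in the dark; 0% control DMSO, 100% control 10 μM dexamethasone.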
As for `C[C@]12Cc3cnn(-c4ccc(F)cc4)c3C=C1CC[C@@H]1[C@@H]2[C@@H](O)C[C@@]2(C)[C@H]1CC[C@]2(OC(=O)c1ccco1)C(=O)SCCCC#N` [Example 86, (1R,3aS,3bS,10aR,10bS,11S,12aS)-1-{[(3-Cyanopropyl)sulfanyl]carbonyl}-7-(4-fluorophenyl)-11-hydroxy-10a,12a-dimethyl-1,2,3,3a,3b,4,5,7,10,10a,10b,11,12,12a-tetradecahydrocyclopenta[5,6]naphtho[1,2-f]indazol-1-yl furan-2-carboxylate], the 50% inhibitory concentration (IC50) came to 3.5 nM.
The result for `CC(=O)OCC(=O)CSC(=O)[C@@]1(OC(=O)c2ccco2)CC[C@H]2[C@@H]3CCC4=Cc5c(cnn5-c5ccc(F)cc5)C[C@]4(C)[C@H]3[C@@H](O)C[C@@]21C` [Example 87, (1R,3aS,3bS,10aR,10bS,11S,12aS)-1-({[3-(Acetyloxy)-2-oxopropyl]sulfanyl}carbonyl)-7-(4-fluorophenyl)-11-hydroxy-10a,12a-dimethyl-1,2,3,3a,3b,4,5,7,10,10a,10b,11,12,12a-tetradecahydrocyclopenta[5,6]naphtho[1,2-f]indazol-1-yl furan-2-carboxylate] reads 5.3 nM.
For `C=C(CSC(=O)[C@@]1(OC(=O)c2ccco2)CC[C@H]2[C@@H]3CCC4=Cc5c(cnn5-c5ccc(F)cc5)C[C@]4(C)[C@H]3[C@@H](O)C[C@@]21C)OCOC` [Example 88, (1R,3aS,3bS,10aR,10bS,11S,12aS)-7-(4-fluorophenyl)-11-hydroxy-1-({[2-(methoxymethoxy)prop-2-en-1-yl]sulfanyl}carbonyl)-10a,12a-dimethyl-1,2,3,3a,3b,4,5,7,10,10a,10b,11,12,12a-tetradecahydrocyclopenta[5,6]naphtho[1,2-f]indazol-1-yl furan-2-carboxylate], the concentration for half-maximal inhibition (IC50) is 13 nM.
To `CC(=O)CSC(=O)[C@@]1(OC(=O)c2ccco2)CC[C@H]2[C@@H]3CCC4=Cc5c(cnn5-c5ccc(F)cc5)C[C@]4(C)[C@H]3[C@@H](O)C[C@@]21C` [Example 89, (1R,3aS,3bS,10aR,10bS,11S,12aS)-7-(4-Fluorophenyl)-11-hydroxy-10a,12a-dimethyl-1-{[(2-oxopropyl)sulfanyl]carbonyl}-1,2,3,3a,3b,4,5,7,10,10a,10b,11,12,12a-tetradecahydrocyclopenta[5,6]naphtho[1,2-f]indazol-1-yl furan-2-carboxylate] belongs 6.9 nM; to `C[C@]12Cc3cnn(-c4ccc(F)cc4)c3C=C1CC[C@@H]1[C@@H]2[C@@H](O)C[C@@]2(C)[C@H]1CC[C@]2(OC(=O)c1ccco1)C(=O)SCC(N)=O` [Example 90, (1R,3aS,3bS,10aR,10bS,11S,12aS)-1-{[(2-Amino-2-oxoethyl)sulfanyl]carbonyl}-7-(4-fluorophenyl)-11-hydroxy-10a,12a-dimethyl-1,2,3,3a,3b,4,5,7,10,10a,10b,11,12,12a-tetradecahydrocyclopenta[5,6]naphtho[1,2-f]indazol-1-yl furan-2-carboxylate], 4.6 nM; to `C[C@]12Cc3cnn(-c4ccc(F)cc4)c3C=C1CC[C@@H]1[C@@H]2[C@@H](O)C[C@@]2(C)[C@H]1CC[C@]2(OC(=O)c1ccco1)C(=O)SCCO` [Example 91, (1R,3aS,3bS,10aR,10bS,11S,12aS)-7-(4-fluorophenyl)-11-hydroxy-1-{[(2-hydroxyethyl)sulfanyl]carbonyl}-10a,12a-dimethyl-1,2,3,3a,3b,4,5,7,10,10a,10b,11,12,12a-tetradecahydrocyclopenta[5,6]naphtho[1,2-f]indazol-1-yl furan-2-carboxylate], 3.7 nM.
To `C[C@]12Cc3cnn(-c4ccc(F)cc4)c3C=C1CC[C@@H]1[C@@H]2[C@@H](O)C[C@@]2(C)[C@H]1CC[C@]2(OC(=O)c1ccco1)C(=O)SCCCO` [Example 92, (1R,3aS,3bS,10aR,10bS,11S,12aS)-7-(4-Fluorophenyl)-11-hydroxy-1-{[(3-hydroxypropyl)sulfanyl]carbonyl}-10a,12a-dimethyl-1,2,3,3a,3b,4,5,7,10,10a,10b,11,12,12a-tetradecahydrocyclopenta[5,6]naphtho[1,2-f]indazol-1-yl furan-2-carboxylate] belongs 4 nM.
The result for `COCSC(=O)[C@@]1(OC(=O)c2ccco2)CC[C@H]2[C@@H]3CCC4=Cc5c(cnn5-c5ccc(F)cc5)C[C@]4(C)[C@H]3[C@@H](O)C[C@@]21C` [Example 93, (1R,3aS,3bS,10aR,10bS,11S,12aS)-7-(4-Fluorophenyl)-11-hydroxy-1-{[(methoxymethyl)sulfanyl]carbonyl}-10a,12a-dimethyl-1,2,3,3a,3b,4,5,7,10,10a,10b,11,12,12a-tetradecahydrocyclopenta[5,6]naphtho[1,2-f]indazol-1-yl furan-2-carboxylate] reads 5.6 nM; that for `CC(=O)OCSC(=O)[C@@]1(OC(=O)c2ccco2)CC[C@H]2[C@@H]3CCC4=Cc5c(cnn5-c5ccc(F)cc5)C[C@]4(C)[C@H]3[C@@H](O)C[C@@]21C` [Example 94, (1R,3aS,3bS,10aR,10bS,11S,12aS)-1-({[(Acetyloxy)methyl]sulfanyl}carbonyl)-7-(4-fluorophenyl)-11-hydroxy-10a,12a-dimethyl-1,2,3,3a,3b,4,5,7,10,10a,10b,11,12,12a-tetradecahydrocyclopenta[5,6]naphtho[1,2-f]indazol-1-yl furan-2-carboxylate], 5.9 nM; that for `CCC(=O)O[C@]1(C(=O)SCCOC(C)=O)CC[C@H]2[C@@H]3CCC4=Cc5c(cnn5-c5ccc(F)cc5)C[C@]4(C)[C@H]3[C@@H](O)C[C@@]21C` [Example 95, (1R,3aS,3bS,10aR,10bS,11S,12aS)-1-({[2-(Acetyloxy)ethyl]sulfanyl}carbonyl)-7-(4-fluorophenyl)-11-hydroxy-10a,12a-dimethyl-1,2,3,3a,3b,4,5,7,10,10a,10b,11,12,12a-tetradecahydrocyclopenta[5,6]naphtho[1,2-f]indazol-1-yl propanoate], 4.7 nM.
For `CCC(=O)O[C@]1(C(=O)SCC#N)CC[C@H]2[C@@H]3CCC4=Cc5c(cnn5-c5ccc(F)nc5)C[C@]4(C)[C@H]3[C@@H](O)C[C@@]21C` [Example 97, (1R,3aS,3bS,10aR,10bS,11S,12aS)-1-{[(Cyanomethyl)sulfanyl]carbonyl}-7-(6-fluoropyridin-3-yl)-11-hydroxy-10a,12a-dimethyl-1,2,3,3a,3b,4,5,7,10,10a,10b,11,12,12a-tetradecahydrocyclopenta[5,6]naphtho[1,2-f]indazol-1-yl propanoate], the IC50 came to 2.1 nM.
The result for `CCC(=O)O[C@]1(C(=O)SCOC)CC[C@H]2[C@@H]3CCC4=Cc5c(cnn5-c5ccc(F)nc5)C[C@]4(C)[C@H]3[C@@H](O)C[C@@]21C` [Example 98, (1R,3aS,3bS,10aR,10bS,11S,12aS)-7-(6-Fluoropyridin-3-yl)-11-hydroxy-1-{[(methoxymethyl)sulfanyl]carbonyl}-10a,12a-dimethyl-1,2,3,3a,3b,4,5,7,10,10a,10b,11,12,12a-tetradecahydrocyclopenta[5,6]naphtho[1,2-f]indazol-1-yl propanoate] reads 3.1 nM; that for `CCC(=O)O[C@]1(C(=O)SCF)CC[C@H]2[C@@H]3CCC4=Cc5c(cnn5-c5ccc(F)nc5)C[C@]4(C)[C@H]3[C@@H](O)C[C@@]21C` [Example 99, (1R,3aS,3bS,10aR,10bS,11S,12aS)-1-{[(Fluoromethyl)sulfanyl]carbonyl}-7-(6-fluoropyridin-3-yl)-11-hydroxy-10a,12a-dimethyl-1,2,3,3a,3b,4,5,7,10,10a,10b,11,12,12a-tetradecahydrocyclopenta[5,6]naphtho[1,2-f]indazol-1-yl propanoate], 2.1 nM; that for `C[C@]12Cc3cnn(-c4cccc(C(=O)N5CCOCC5)c4)c3C=C1CC[C@@H]1[C@@H]2[C@@H](O)C[C@@]2(C)[C@H]1CC[C@]2(OC(=O)c1ccco1)C(=O)SCF` [Example 100, (1R,3aS,3bS,10aR,10bS,11S,12aS)-1-{[(Fluoromethyl)thio]carbonyl}-11-hydroxy-10a,12a-dimethyl-7-[3-(morpholin-4-ylcarbonyl)phenyl]-1,2,3,3a,3b,4,5,7,10,10a,10b,11,12,12a-tetradecahydrocyclopenta[5,6]naphtho[1,2-f]indazol-1-yl furan-2-carboxylate], 2.7 nM.
